Data as given in ChEMBL document CHEMBL1125537, “3'-Azido-3',5'-dideoxythymidine-5'-methylphosphonic acid diphosphate: synthesis and HIV-1 reverse transcriptase inhibition” (J Med Chem, 1992).
Activity calls are given as the source filed them. The rule behind the calls is not given here.

Assays:
MT4 [1] = assay: antiviral activity against HIV-1 in MT-4 cells using cell-protection assay at a concentration of 200 uM; format: functional, cell-based; details: Homo sapiens
MT4 [2] = assay: Average antiviral activity against HIV-1 in MT-4 cells using cell-protection assay; format: functional, cell-based; details: Homo sapiens

| SMILES | Activity (MT4 [1]) | IC50 (MT4 [2]) [µM] |
| --- | --- | --- |
| Cc1cn(C2CC(N=[N+]=[N-])C(CCP(=O)(O)O)O2)c(=O)[nH]c1=O (stereo not given) | inactive | – |
| Cc1cn(C2CC(N=[N+]=[N-])C(CCP(=O)(O)Oc3ccccc3)O2)c(=O)[nH]c1=O (stereo not given) | inactive | – |
| Cc1cn([C@H]2C[C@H](N=[N+]=[N-])[C@@H](CO)O2)c(=O)[nH]c1=O [ZIDOVUDINE] | – | 0.06 |
| Cc1cn(C2CC(N=[N+]=[N-])C(/C=C/P(=O)(O)Oc3ccccc3)O2)c(=O)[nH]c1=O (stereo not given) | inactive | – |
| Cc1cn(C2CC(N=[N+]=[N-])C(/C=C/P(=O)(O)O)O2)c(=O)[nH]c1=O (stereo not given) | inactive | – |
